Where two headings read alike, the source gives them in different places. Values belong to the compound of their own block, whether it stands above or below them.
What was measured:
Lewis Lung Cancer = test: Anticancer activity in Lewis lung carcinoma animal model; assay type: in vivo, C57 mice; conditions: mice, oral, Indirubin 100 × 9, Meisoindigo 106 × 9 mg/kgxd
Experimental: (§4) Briefly, C57 mice, body weight between 18 to 22 grams, and rat, body weight between 50 to 55 grams, were randomly divided into several groups, ten of each, respectively. Approximately 2×10^6 of Lewis cancer cells or Walker sarcoma cells were transplanted into mice or rat. […] The animals in the control group were given 0.1 ml saline (drug vehicle, negative control) for the same periods of time as treated group. The animals at end of the treatment were sacrificed and tumors were removed and weighed.

Walker 256 = test: Anticancer activity against Walker 256 sarcoma; conditions: Walker 256, rat, oral; Indirubin 100 × 9, Meisoindigo 106 × 9 mg/kgxd
Experimental: Anticancer activity against Walker 256: Wistar rats with body weights between 50 to 55 grams, were randomly divided into several groups, ten of each, respectively. Approximately 2×10^6 of the Walker sarcoma cells were transplanted into a Wistar rat. Twenty-four hours after the transplantation, equal molar dosage (0.384 mM/kg) of NATURA or other sugar derivatives were given orally for 10 days. The animals in the control group were given 0.1 ml saline (drug vehicle, negative control) for the same periods of time as treated group. Twenty-four hours after the last administration, the animals were sacrificed and tumors were removed and weighed.
as §4
In order to assess the anticancer activities of NATURA and other sugar derivatives, Wistard rats transplanted with W256 were given the same molar of the tested compounds (0.384 mM/kg) for the same period of time (10 days).

LNCaP = test: Growth inhibition by MTT, LNCaP prostate cancer cells; assay type: cell-based, Human; conditions: MTT, 72 h exposure (Table 3), read-out: IC50 LNCaP
Experimental: Growth inhibitory effects of NATURA and other agents on human cancer cells were determined by standard MTT (3-(4,5-dimethylthiazol-2-yl)-2,5-diphenyltetrazolium bromide Test) as described previously. […] The cells in the plates were then exposed to series of dilution of indicated agent. After 72 h of incubation, 100 μl of the medium was removed from each of the wells and 50 μl of a 1 mg/ml solution of 3-(4,5-dimethylthiazol-2-yl)-2,5-diphenyltetrazolium bromide (MTT) was added to each well and the cells were incubated for additional 4 h. 200 μl of solution of 0.04 N HCl-isopropanol was added to each well to dissolve the black fromazan participates, and absorbance at 540 nm was measured on a 96-Well.
(§1) The cells in the plates were then exposed to series of dilution of indicated agent. After 72 h of incubation, 100 μl of the medium was removed from each of the wells and 50 μl of a 1 mg/ml solution of 3-(4,5-dimethylthiazol-2-yl)-2,5-diphenyltetrazolium bromide (MTT) was added to each well and the cells were incubated for additional 4 h. 200 μl of solution of 0.04 N HCl-isopropanol was added to each well to dissolve the black fromazan participates, and absorbance at 540 nm was measured on a 96-Well Microplate Reader. Each experiment was repeated at least three times.

PC-3 = test: Growth inhibition by MTT, PC-3 prostate cancer cells; assay type: cell-based, Human; conditions: read-out: IC50 PC-3
Experimental: (§2) Growth inhibitory effects of NATURA and other agents on human cancer cells were determined by standard MTT (3-(4,5-dimethylthiazol-2-yl)-2,5-diphenyltetrazolium bromide Test) as described previously. Briefly, cancer cells grown exponentially were aliquoted into 96-well plates at a density of 5000 cells/200 μl per well in RPMI 1640 medium containing 10% FBS overnight. The cells in the plates were then exposed to series of dilution of indicated agent. After 72 h of incubation, 100 μl of the medium was removed from each of the wells and 50 μl of a 1 mg/ml solution of 3-(4,5-dimethylthiazol-2-yl)-2,5-diphenyltetrazolium bromide (MTT) was added to each well and the cells were incubated for additional 4 h. 200 μl of solution of 0.04 N HCl-isopropanol was added to each well to dissolve the black fromazan participates, and absorbance at 540 nm was measured on a 96-Well.

MCF-7 = test: Growth inhibition by MTT, MCF-7 breast cancer cells; assay type: cell-based, Human
Experimental: as §2
as §1, with “FIGS. 3-5 show the anticancer affects of NATURA in MCF-7 breast cancer cells, DLD-1 colon cancer cells, and LNCaP hormone-dependent prostate cancer cells. The cancer cells grown exponentially were aliquoted into 96-well plates at a density of 5000 cells/200 μl per well in RPMI 1640 medium containing 10% fetal bovine serum (FBS) overnight. The” for “The”

SKBR-3 = test: Growth inhibition by MTT, SKBR-3 breast cancer cells; assay type: cell-based, Human; conditions: read-out: IC50 SKBR-3
Experimental: as §2

LOVO = test: Growth inhibition by MTT, LOVO colon cancer cells; assay type: cell-based, Human; conditions: read-out: IC50 LOVO
Experimental: as §2

DLD-1 = test: Growth inhibition by MTT, DLD-1 colon cancer cells; assay type: cell-based, Human
Experimental: as §2
as §1, with “FIGS. 3-5 show the anticancer affects of NATURA in MCF-7 breast cancer cells, DLD-1 colon cancer cells, and LNCaP hormone-dependent prostate cancer cells. The cancer cells grown exponentially were aliquoted into 96-well plates at a density of 5000 cells/200 μl per well in RPMI 1640 medium containing 10% fetal bovine serum (FBS) overnight. The” for “The”

DU145 = test: Growth inhibition by MTT, DU145 prostate cancer cells; assay type: cell-based, Human; conditions: read-out: IC50 DU145
Experimental: as §2

human cancer cell lines = test: Growth inhibition by MTT, all tested human cancer cell lines; assay type: cell-based; conditions: range over breast, colon, prostate lines, three day exposure, read-out: IC50, growth inhibitory effects on all tested human cancer cell lines
Experimental: as §2

[1] = molecular target: T1, immuno-purified cdk2 from LNCaP cells (Homo sapiens, UniProt P24941); test: Direct inhibition of immuno-purified cdk2 activity in vitro; assay type: biochemical; conditions: 50 μM, immuno-purified cdk2, positive control
T1 construct: Two hundred mg of total protein extracts were immuno-precipitated with cdk2 antibody overnight at 4° C
Experimental: (§3) Assay for cyclin dependent kinase activity: HUVEC and LNCaP cells were cultured in EMB (endothelial cell basal medium) and RPMI 1640 containing 10% FBS, respectively. The cells grown exponentially were exposed to indicated concentrations of meisoindigo or NATURA for 24 hr. The cells were harvested, washed, and total proteins extracted as described previously. One hundred μg of the proteins were immuno-precipitated using antibodies against cdk2, cdk4/6, PKC, ERK2 or cyclin D1 overnight at 4° C. in the presence of a cocktail of protease inhibitors. The immuno-precipitates were washed 4 times with protein extraction buffer and once with kinase assay buffer, and reacted with 75 μg/ml histone H1 in the presence of [γ-^32P]-ATP (2.5 μCi/10 μM). The phosphorylated histone H1 (represent cdk activity) was measured by scintillation counting or by SDS-polyacrylaimde gel electrophoresis. The direct inhibitory effects of Meisoindigo and NATURA were also measured by reaction of immuno-purified specific enzyme from untreated cells directly with the Meisoindigo or NATURA.
When immuno-purified cdk2 from LNCaP cells was reacted with histone H1 in the presence of different concentrations of NATURA-β and γ-[^32P]-ATP (2.5 μCi/[…]), the enzyme activity was decreased in a concentration-dependent manner.
Two hundred mg of total protein extracts were immuno-precipitated with cdk2 antibody overnight at 4° C. After 4 washes with PBSTDS, and once with kinase assay buffer, the immuno-purified enzyme was then reacted for 10 min with 10 mg of histone H1 in the presence of different concentrations of NATURA or 50 mM of genistein (as a positive control) and γ-[^32P]-ATP (2.5 mCi/10 mM). The phosphorylated histone H1 (reflecting cdk2 activity) was detected either by SDS-PAGE (upper panel), or radioactive scintillation counting (lower panel, after eliminating free γ-[^32P]-ATP).

[2] = system: polychromatic erythrocytes from bone marrow; test: Induction of micronuclei in rodent animals; assay type: in vivo; conditions: mice, 48 mg/kg intraperitoneally daily for 2 days, positive control
Experimental: Cyclophosphamine at dosage of 48 mg/kg was given intraperitoneally daily for 2 days as positive control. Six hrs after the latest administration, the animals were sacrificed, and polychromatic erythrocytes from bone marrow were stained with Giemsa to count micronuclei.

[3] = system: extracellular signal-regulated protein kinase 2 (ERK2); test: ERK2 activity from treated LNCaP cells; assay type: cell-based, Human; conditions: different concentrations, 15 min
Experimental: as §3, with “The immuno-precipitates were washed 4 times with protein extraction buffer and once with kinase assay buffer, and reacted with 75 μg/ml histone H1 in the presence of [γ-^32P]-ATP (2.5 μCi/10 μM).” left out, “NATURA. […]” for “NATURA.”
LNCaP cells at exponential growth phase were exposed to different concentrations of NATURA (panel A & B) for 24 hrs, or to PD98059 (panel C) for 15 min. […] Upper panels are the imagines of x-ray films from SDS-PAGE, and lower panels represent the densities of each band from the films determined by an Imagine Densitometer from the same films (expressed as the percent of control).

[4] = Homo sapiens, PC-3, MTT, 72 h exposure
[5] = Homo sapiens, DLD-1, 72 h exposure

Compound: O=C1Nc2ccccc2/C1=C1/Nc2ccccc2C1=O [Indirubin]
- Inhibition (%) (Lewis Lung Cancer): 26.3 ± 2.8%
- Tumor Size X ± SD (Lewis Lung Cancer): 2.58 ± 0.21
- Inhibition (%) (Walker 256): 59.4 ± 2.9%
- Tumor Size X ± SD (Walker 256): 3.94 ± 0.71

- IC50 (LNCaP; Homo sapiens, LNCaP): 40.6 ± 7.12 µM
- IC50 (PC-3; [4]): 134 ± 12.9 µM
Compound: CC(C)(C)NC(=O)[C@H]1CC[C@H]2[C@@H]3CC[C@H]4NC(=O)C=C[C@]4(C)[C@H]3CC[C@]12C [Proscar]

- IC50 (MCF-7; 72 h exposure): 21.4 ± 3.78 µM
- IC50 (SKBR-3; MTT, 72 h exposure): > 50 µM
- IC50 (LOVO; MTT, 72 h exposure): 75.3 ± 12.5 µM
- IC50 (DLD-1; 72 h exposure): 49.7 ± 5.72 µM
- IC50 (LNCaP): 16 ± 3.19 µM
- IC50 (PC-3; MTT, 72 h exposure): > 50 µM
- IC50 (DU145; MTT, 72 h exposure): > 50 µM
- IC50 (human cancer cell lines): ≥ 21.4 µM
Compound: CC1=C(/C=C/C(C)=C/C=C/C(C)=C/C(=O)O)C(C)(C)CCC1 [Retinoid Acid]

- IC50 (LOVO; Homo sapiens, LoVo, MTT, 72 h exposure): 0.00364 ± 0.00051 µM
- IC50 (DLD-1; [5]): 0.00315 ± 0.00037 µM
Compound: CC(=O)O[C@H]1C(=O)[C@@]2(C)[C@H]([C@H](OC(=O)c3ccccc3)[C@]3(O)C[C@H](OC(=O)[C@H](O)[C@@H](NC(=O)c4ccccc4)c4ccccc4)C(C)=C1C3(C)C)[C@]1(OC(C)=O)CO[C@@H]1C[C@@H]2O [Paclitaxel]

Compound: COc1cccc2c1C(=O)c1c(O)c3c(c(O)c1C2=O)C[C@@](O)(C(C)=O)C[C@@H]3O[C@H]1C[C@H](N)[C@H](O)[C@H](C)O1 [Daunomycin]
- IC50 (MCF-7; Homo sapiens, MCF7, 72 h exposure): 0.054 ± 0.011 µM
- IC50 (SKBR-3; Homo sapiens, SK-BR-3, 72 h): 0.061 ± 0.0051 µM
- IC50 (LOVO; Homo sapiens, LoVo, 72 h): 0.035 ± 0.004 µM
- IC50 (DLD-1; [5]): 0.094 ± 0.013 µM
- IC50 (PC-3; Homo sapiens, PC-3, 72 h): 0.24 ± 0.018 µM
- IC50 (DU145; Homo sapiens, DU-145, 72 h): 0.107 ± 0.004 µM

- inhibition at 50 µM [1]: ~56%
Compound: O=c1c(-c2ccc(O)cc2)coc2cc(O)cc(O)c12 [genistein]

Compound: O=P1(N(CCCl)CCCl)NCCCO1 (centres unmarked) [Cyclophosphamine]
- micronuclei [2]: 41.16 per thousand

- IC50 (MCF-7; 72 h exposure): > 200 µM
- IC50 (SKBR-3; MTT, 72 h exposure): > 200 µM
- IC50 (LOVO; MTT, 72 h exposure): > 200 µM
- IC50 (DLD-1; 72 h exposure): > 200 µM
- IC50 (LNCaP): 65.5 ± 9.46 µM
- IC50 (PC-3; MTT, 72 h exposure): > 200 µM
- IC50 (DU145; MTT, 72 h exposure): > 200 µM
- IC50 (human cancer cell lines): > 200 µM
Compound: CS(=O)(=O)Nc1ccc([N+](=O)[O-])cc1OC1CCCCC1 [NS389]

- IC50 (LNCaP; Homo sapiens, LNCaP): 57.4 ± 7.21 µM
- IC50 (PC-3; [4]): 120 ± 17.3 µM
Compound: CC(O)(CS(=O)(=O)c1ccc(F)cc1)C(=O)Nc1ccc(C#N)c(C(F)(F)F)c1 (centres unmarked) [Casodex]

Compound: COc1cccc(-c2cc(=O)c3ccccc3o2)c1N [PD98059]
- effect on ERK2 [3]: concentration-dependent inhibitory effects
